This note sets out measurements from article PMC7490411 (Signal Transduction and Targeted Therapy, 2020).

Molecules are shown by their SMILES.

Usually GI50 stands for the concentration at which growth is held to half of that of the control. As a reminder, the TGI is the reduction of tumour growth relative to the control group.

The subject of one series is REC-1. Description: anti-proliferative CellTiter-Glo assay. In kind it is cell-based. As to conditions: Homo sapiens, Rec1; REC-1, 72 h. The protocol:
(§1) Cell viability was measured using the CellTiter–Glo assay (Promega, USA) according to the manufacturer’s instructions, and […] was measured in a Bio-red Microplate reader (Bio-Red, USA).
Background: Cellular ATP, detected with luciferase, serves as a proxy for viable cell number.

Another series relates to TMD8. Description: anti-proliferative CellTiter-Glo assay. In kind it is cell-based. Conditions: Homo sapiens, TMD8, 72 h. The protocol:
as §1

For series [1], the system named is REC-1 cell (MCL)-inoculated xenograft. Description: REC-1 cell subcutaneous xenograft tumor model. As to conditions: REC-1 xenograft, 100 mg/kg/day, 14 days. It counts as in vivo.
A short description of series [2]: drug enrichment in the tumor. As to conditions: 100 mg/kg. It counts as in vivo, mouse.
A further series deals with Mino cells. Description: NK-cell-mediated ADCC, LDH release cytotoxicity assay, Rituximab. In kind it is cell-based, human. How it is done: (§2) The cytotoxicity of NK cells was measured using the CyQUANT™ LDH Cytotoxicity Assay Kit (Invitrogen™, #C20300) according to the manufacturer’s instructions. Briefly, enriched NK cells (6 × 10^5 /ml) were cultured with the same volume of Mino cell and SK-OV-3 cell (1-2 × 10^4 /ml) in a 96-well plate for 4 h with Rituximab and Herceptin (10 μg/mL) and CHMFL-BTK-85 or PCI32765 at 37°C in a humidified CO2 incubator prior to removal of the supernatant for lactate dehydrogenase (LDH) release measurements. Calculate % Cytotoxicity by using the following formula: %Cytotoxicity = (Compound-treated LDH activity-Spontaneous LDH activity)/(Maximum LDH activity-Spontaneous LDH activity)*100.
On the technique in general: LDH in the medium is a marker of cell lysis.

In a further series the test system is SK-OV-3 cells. Description: NK-cell-mediated ADCC, LDH release cytotoxicity assay, Herceptin. In kind it is cell-based, human. How it is done:
as §2

For a further series, the system named is DOHH2. Description: anti-proliferative CellTiter-Glo assay. In kind it is cell-based. Conditions: Homo sapiens, DOHH-2; DOHH2, 72 h. The protocol:
as §1

For another series, the system named is JEKO-1. Description: anti-proliferative CellTiter-Glo assay. In kind it is cell-based. Conditions: Homo sapiens, JeKo-1, 72 h. The protocol: as §1
The subject of the next series is Pfeiffer. Nature of the series: anti-proliferative CellTiter-Glo assay. As to conditions: Homo sapiens, 72 h. In kind it is cell-based. How it is done:
as §1

For a further series, the system named is Raji. Description: anti-proliferative CellTiter-Glo assay. Conditions: Homo sapiens, 72 h. In kind it is cell-based. How it is done:
as §1

The next series concerns Ramos. Nature of the series: anti-proliferative CellTiter-Glo assay. In kind it is cell-based. As to conditions: Homo sapiens, 72 h. The protocol: as §1
In another series the test system is SU-DHL-2. Description: anti-proliferative CellTiter-Glo assay. It counts as cell-based. Conditions: Homo sapiens, SU-DHL-2, 72 h. The protocol:
as §1

A further series concerns SU-DHL-6. Nature of the series: anti-proliferative CellTiter-Glo assay. It counts as cell-based. Conditions: Homo sapiens, SU-DHL-6, 72 h. How it is done:
as §1

Another series relates to U2932. Description: anti-proliferative CellTiter-Glo assay. It counts as cell-based. As to conditions: Homo sapiens, U2932, 72 h. How it is done: as §1
The test system of another series is WSU-DLCL2. Nature of the series: anti-proliferative CellTiter-Glo assay. In kind it is cell-based. As to conditions: Homo sapiens, WSUDLCL2; WSU-DLCL2, 72 h. The protocol:
as §1

Series [3] has as its system TMD8 cell (DLBCL)-inoculated xenograft. Description: TMD8 cell subcutaneous xenograft tumor model. In kind it is in vivo. Conditions: TMD8 xenograft, 100 mg/kg/day, 28 days.
Series [4] has as its system REC-1 cells bone marrow engraftment. Nature of the series: REC-1 cells bone marrow engrafted mouse model. As to conditions: REC-1 bone marrow engraftment, 100 mg/kg/day p.o. It counts as in vivo. The protocol: Five-week old female NOD-SCID mice were purchased from the Beijing Vital River Laboratory Animal Technology Co., Ltd (Beijing, China). All animals were housed in a specific pathogen free facility and used according to the animal care regulations of Hefei Institutes of Physical Science, Chinese Academy of Sciences. NOD-SCID mice were induced by intraperitoneal injection of cyclophosphamide (CTX) 50 mg/kg daily for two days. 8 million REC-1 cells in 0.3 mL RPMI1640 medium were injected by intravenous after 24 h. […] Mice were monitored daily and were euthanized when moribund or at early signs of hind limb paralysis.

Regarding `CC#CC(=O)N1CCC[C@H]1c1nc(-c2ccc(C(=O)Nc3ccccn3)cc2)c2c(N)nccn12` [Acalabrutinib], the GI50 in the series on REC-1 worked out at 30 ± 2 nM; in the series on TMD8 it was 20 ± 3 nM. Besides, the TGI in [1] came out at 58%. Also, in series [2], the “concentration in the tumor” value was 1300 nM.

In the case of `C=CC(=O)N1CCC[C@@H](n2nc(-c3ccc(Oc4ccccc4)cc3)c3c(N)ncnc32)C1` [Ibrutinib, reference compound], the “effect on antibody-dependent NK-cell-mediated cytotoxicity (ADCC)” value in the series with Mino cells and with SK-OV-3 cells was “significantly impaired” throughout. Moreover, the GI50 in the series on DOHH2 turned out to be 260 ± 180 nM; in the series on JEKO-1, 2000 ± 150 nM; in the series on Pfeiffer, 1200 ± 120 nM; in the series with REC-1 it was 30 ± 21 nM; in the series with Raji, 6100 ± 1800 nM; in the series with Ramos it was 3800 ± 660 nM. Further, the GI50 was found to be 4900 ± 200 nM in the series with SU-DHL-2; 370 ± 55 nM with SU-DHL-6; 1 ± 0.1 nM in the series on TMD8; 1400 ± 1200 nM in the series with U2932; 180 ± 100 nM in the series on WSU-DLCL2. The values for the TGI in series [3] and in [1] were 90% and 59%, respectively. For the same molecule, the “concentration in the tumor” value in series [2] is 1230 nM. In addition, the median survival time in series [4] came out at 39 days.
